Source: patent publication US11986482B2, “Method of promoting antitumor or anti-cancer immunity” (City University of Hong Kong, priority 2021, dated 2024)
“Also recorded” adds a separate entry of the source.

Assays:
[1] = tested on: Rab27a-knockout 4T1 cells; assay: 4T1-shRab27A (Rab27a-knockout) orthotopic tumors in Balb/c mice; format: in vivo, mouse
Method: Therefore, it is possible that the increased exosomal PD-L1 secretion induced by 6J1 may still suppress the tumor-infiltrating T cell cytotoxicity in vivo, even though 6J1 reduces the cell surface expression level of PD-L1 on the tumor cells. To evaluate the role of exosomal PD-L1 in the tumor microenvironment and tumor progression in mice, inventors knock out Rab27a in 4T1 cells to inhibit the secretion of exosomes. 4T1-shNC or 4T1-shRab27A cells are treated with or without 6J1 (1 μM). The supernatant is collected, and the concentration of extracellular vesicle is determined using a Nanosight nanoparticle analyzer. […] Inventors analyze the plasma membrane levels of PD-L1 in 4T1-shNC or 4T1-shRab27A cells treated with or without 6J1 (1 μM). […] Next, control or Rab27a-knockout 4T1 cells are orthotopically transplanted into syngeneic fat pads of female Balb/c. The mice are randomly divided (n=5 per group) and treated with either buffer or 6J1 (30 mg/kg, daily) via oral gavage. […] Inventors also perform the immunostaining of CD8 and Granzyme B in the tumor sections. […] Since enhanced antitumor immunity leads to increased apoptosis in tumors, inventors assess the levels of cleaved caspase3 (CCA3), one of the markers of apoptosis, in tumor sections as well.

[2] = tested on: 4T1 mouse mammary carcinoma; assay: Orthotopic 4T1 mammary carcinoma model in syngeneic Balb/c mice; format: in vivo; details: oral gavage, daily
Method: To determine whether 6J1 can promote anti-cancer immunity in vivo, 4T1 cells are orthotopically transplanted into syngeneic Balb/c mice. The mice are randomly divided into three groups (n=7 per group) and treated with either buffer or 6J1 (15 or 30 mg/kg, daily) via oral gavage. Tumor volume and body weight of mice are measured at the indicated time point. After the tumor reaches the indicated size, the mice are treated with 6J1 (via oral gavage) at different doses (15 mg/kg or 30 mg/kg) daily for 4 weeks. […] The effective dosages of 6J1 in vivo can range from about 0.1 mg/kg to about 300 mg/kg; or from about 1 mg/kg to about 200 mg/kg; or from about 3 mg/kg to about 100 mg/kg, taking into account, for example, activity and toxicity

Raw246.7 cells = assay: Chemokine level in supernatant of Raw246.7 cells; format: cell-based; details: in vitro, 1 μM
[3] = Repeated-dose oral gavage toxicity in rats, up to 7 days; details: rat, in vivo
Method: Inventors also evaluate the toxicity profile following oral gavage administration of 6J1 at dose levels of 0 (vehicle), 150, 450, and 1000 mg/kg once daily for up to 7 consecutive days to rats. Rats of the 300 mg/kg group are tested separately from other groups (showing higher initial weight than other groups), and rats of 450 and 1000 mg/kg groups are terminated on day 4 due to several clinical findings.

[4] = Subchronic toxicity in Balb/C mice, 4 weeks oral; format: in vivo, mouse; details: 30 mg/kg per day
Method: Last, inventors investigate the in vivo toxicity of 6J1 in mice. 6-week-old Balb/C mice are treated with […] (PEG400/Ethanol/tween80, 1:1:1) or 6J1 (30 mg/kg, per day) via oral route for 4 weeks. Clinical observations, e.g., food consumption, body weight changes, and ophthalmic exams, are performed every three days. Tissue weight index (tissue weight/body weight×100%) are measured. […] 6J1 has no effects on mouse weight gain and weights of various organs (FIGS. 18a and 18b). At the end of experiment, the blood is collected from mice in each group for AST, ALT, and ALP measurement. The mice are then sacrificed, and the major organs are isolated, examined, and subjected to H&E staining.

Rab27a = target: T1, Rab27a (Homo sapiens, UniProt P51159); assay: GST-SHD pulldown assay of Rab27a activity; format: cell-based; details: HeLa cells, 1 μM
T1 construct: western blot analysis of Rab27a in HeLa cells treated with or without 6J1 (1 μM) through a GST-SHD pulldown assay; endogenous in cells; host or cells: HeLa cells
T1 sequence (P51159 1-221): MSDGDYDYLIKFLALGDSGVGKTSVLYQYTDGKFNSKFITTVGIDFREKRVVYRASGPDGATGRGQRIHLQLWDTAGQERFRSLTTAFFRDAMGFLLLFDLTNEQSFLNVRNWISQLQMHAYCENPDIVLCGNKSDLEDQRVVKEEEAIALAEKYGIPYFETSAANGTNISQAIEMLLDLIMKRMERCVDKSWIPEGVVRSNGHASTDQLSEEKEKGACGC
Method: It has previously been shown that interfering with endosomal trafficking promotes exosome secretion. Moreover, PD-L1 has been reported to be enriched in exosomes and secreted outside the cell. Thus, inventors speculate that 6J1 may induce the secretion of the PD-L1 trapped in the endosomal compartments via exosomes. To determine whether 6J1 may induce the secretion of PD-L1 via exosomes, HeLa cells are treated with or without 6J1 (1 μM) for 24 h. The supernatant is collected. Inventors purify the exosomes from the supernatant of HeLa cells by sequential centrifugation. The concentration of extracellular vesicle is determined using a Nanosight nanoparticle analyzer. And HeLa cells are treated with or without 6J1 (1 μM) for 48 h. The cell and supernatant are collected for Western Blot analysis. […] Moreover, the activity of Rab27a in HeLa cells treated with or without 6J1 (1 μM) is examined with a GST-SHD pulldown assay.

[5] = tested on: HeLa, A549 and MDA-MB-231 cell lines; assay: Cytotoxicity, Hochest 33342 cell number; format: cell-based; details: 24 h or 48 h
Method: The inventors also test the cytotoxicity of 6J1 in several cancer cell lines, HeLa, A549 and MDA-MB-231 cell lines. Cells are grown in 96-well plates in triplicate and treated with or without 6J1 at the concentrations of 0, 0.01, 0.1, 1, 10 and 100 μM indicated for 24 h or 48 h. They are then stained with propidium iodide (PI) or Hochest 33342 to measure the cell death ratio and cell number, respectively. […] Inventors also test the cytotoxicity of 6J1 in 4T1 cells. 4T1 cells are plated in 96-well plates in triplicate and treated with or without 6J1 at the concentrations of 0, 0.01, 0.1, 1, 5, 10, 20, 40, 80 and 100 μM indicated for 24 h or 48 h. The cell viability was then quantified via the MTT assay.

[6] = Rab27a-knockout 4T1 cells, 6J1 30 mg/kg, daily, oral gavage
[7] = Rab27a-knockout 4T1 cells, 6J1 30 mg/kg, daily, oral gavage, 30 mg/kg
[8] = isolated tumor-infiltrating lymphocytes

With OCCOCCN(c1ccccc1)c1nc(N/N=C/c2cccc(I)c2)nc(N2CCOCC2)n1 [Compound 6J1] as the molecule, how does the “activated tumor-infiltrating CD8+ T cell population and expression of IFN-γ vs other groups” value [1, 6] read?
The value was “significantly increased”.

And the “tumor growth and tumor burden vs other groups” value [1, 6]?
The value was “significantly smaller”.

What about the “cleaved caspase3 (CCA3) apoptotic signals in tumors vs other groups” value [1, 7] of the same molecule?
The value was “Stronger clustered apoptotic signals”.

What about the “infiltrated CD8+ T cells in tumor sections (immunostaining) vs other groups” value [1, 7] of the same molecule?
Its value is “More infiltrated CD8+ T cells are detected; also recorded: more infiltrated CD8^+ T cells are detected”.

What about the “overall survival of mice bearing orthotopic 4T1 tumors vs other groups” value ([1]; combination of Rab27a knockout and 6J1 treatment) of the same molecule?
Its value is “substantially prolongs the overall survival”.

What about the “cell surface expression of PD-L1 in the primary tumors” value ([2]; 30 mg/kg) of the same molecule?
The value was “down-regulated”.

What about the tumor growth ([2]; 30 mg/kg, 4 weeks) of the same molecule?
The tumor growth was “significantly decreases the tumor growth”.

What about the “body weight of mice” value ([2]; 15 or 30 mg/kg, 4 weeks) of the same molecule?
The value was “does not change the body weight of mice”.

And the “expression of IFN-γ in CD8+ T cells” value [2, 8]?
The value was “little effect”.

What about the “tumor-infiltrating CD8+ T cell populations” value [2, 8] of the same molecule?
Its value is “significantly increases the tumor infiltrating CD8+ T cell populations; also recorded: significantly increases the tumor-infiltrating CD8+ T cell populations”.

And the “secretion of various chemokines from Raw246.7 cells” value (Raw246.7 cells)?
Its value is “markedly induces the secretion of various chemokines”.

What about the “findings at 450 and 1000 mg/kg” value [3] of the same molecule?
Its value is “severe clinical findings”.

What about the “therapeutic window in experimental animals” value [3] of the same molecule?
The value was “at least 10 fold”.

What about the “clinical signs at 300 mg/kg” value ([3]; po, 300 mg/kg) of the same molecule?
Its value is “soft feces, hunched posture, and reduced feces”.

What about the “finding at 1000 mg/kg” value ([3]; po, 1000 mg/kg) of the same molecule?
The value was “mortality”.

And the “dose levels not tolerated on repeated daily dosing” value ([3]; po, 4 days)?
The value was at least 450 mg/kg.

And the “repeated daily dosing considered tolerated up to” value ([3]; po, 7 days)?
Its value is “up to 300 mg/kg”.

What about the behavior [4] of the same molecule?
Its behavior is “no signs of behavior abnormality”.

What about the “liver function test (AST, ALT, ALP in blood)” value [4] of the same molecule?
The value was “no apparent changes in liver function test”.

What about the mouse weight gain [4] of the same molecule?
The mouse weight gain was “no effects”.

What about the “pathological changes in major organs (H&E staining)” value [4] of the same molecule?
Its value is “no signs of pathological changes in major organs”.

What about the “weights of various organs (tissue weight index)” value [4] of the same molecule?
The value was “no effects”.

What about the “activity of Rab27a-GTPase” value (Rab27a) of the same molecule?
Its value is “significantly increases the activity of Rab27a-GTPase”.

What about the “cell proliferation (cell number)” value ([5]; 0.01-100 μM) of the same molecule?
The value was “inhibits cell proliferation in a concentration-dependent manner”.

And the “cell proliferation at effective concentrations” value ([5]; ≤1 μM, several cell types)?
Its value is “only subtly inhibits cell proliferation”.
